Tests used:
Assay in all cases: Bliss excess, mean over the matrix (fraction); higher = more synergy
[1] = test system: BHT-101 (Thyroid Gland Carcinoma)
Procedure, shortened: (§1)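 Cell lines in DMEM/F12 or RPMI with 10% FBS were plated in 1536-well plates, held 24 hours at 37°C, 5% CO2, then given two-drug dose matrices for 72 hours (DMSO typically 0.2%). Viability was read by CellTiter-Glo 2.0 luminescence and scaled as inhibition from 0 (vehicle wells) to 1 (blank wells). Combination Emax is the second-highest inhibition in the matrix; Bliss excess is observed combination effect minus expected EA + EB − EA·EB, EA and EB being single-agent effects.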

[2] = test system: C-33-A (Cervical Carcinoma)
Procedure, shortened: as §1

[3] = test system: DBTRG-05MG (Glioblastoma)
Procedure, shortened: as §1

[4] = test system: HT-1080 (Other Solid Carcinomas)
Procedure, shortened: as §1

[5] = test system: IA-LM (Non-Small Cell Lung Carcinoma)
Procedure, shortened: as §1

[6] = test system: KALS-1 (Glioblastoma)
Procedure, shortened: as §1

[7] = test system: KP-4 (Pancreatic Carcinoma)
Procedure, shortened: as §1

[8] = test system: MDA-MB-415 (Breast Carcinoma)
Procedure, shortened: as §1

[9] = test system: MONO-MAC-6 (Acute Myeloid Leukemia)
Procedure, shortened: as §1

[10] = test system: NCI-H1341 (Small Cell Lung Carcinoma)
Procedure, shortened: as §1

[11] = test system: NCI-H1876 (Small Cell Lung Carcinoma)
Procedure, shortened: as §1

[12] = test system: NCI-H3118 (Head and Neck Carcinoma)
Procedure, shortened: as §1

[13] = test system: OVCAR-3 (Ovarian Carcinoma)
Procedure, shortened: as §1

[14] = test system: PA-TU-8988T (Pancreatic Carcinoma)
Procedure, shortened: as §1

[15] = test system: PL4 (Pancreatic Carcinoma)
Procedure, shortened: as §1

[16] = test system: SAT (Head and Neck Carcinoma)
Procedure, shortened: as §1

[17] = test system: SK-CO-1 (Colorectal Carcinoma)
Procedure, shortened: as §1

[18] = test system: SNU-423 (Hepatocellular Carcinoma)
Procedure, shortened: as §1

[19] = test system: T84 (Colorectal Carcinoma)
Procedure, shortened: as §1

[20] = test system: WM35 (Melanoma)
Procedure, shortened: as §1

| Structure (SMILES) | Bliss excess [1] | Bliss excess [2] | Bliss excess [3] | Bliss excess [4] | Bliss excess [5] | Bliss excess [6] | Bliss excess [7] | Bliss excess [8] | Bliss excess [9] | Bliss excess [10] | Bliss excess [11] | Bliss excess [12] | Bliss excess [13] | Bliss excess [14] | Bliss excess [15] | Bliss excess [16] | Bliss excess [17] | Bliss excess [18] | Bliss excess [19] | Bliss excess [20] |
| --- | --- | --- | --- | --- | --- | --- | --- | --- | --- | --- | --- | --- | --- | --- | --- | --- | --- | --- | --- | --- |
| Cc1c2c(nn1C)CSCc1cc(n(C)n1)CSc1cc(c3ccccc3c1)OCCCc1c(C(=O)O)n(C)c3c-2c(Cl)ccc13 [AZD5991] + Cc1cc2ncnn2cc1Nc1ncc2c(n1)n(C1CCOCC1)c(=O)n2C [AZD7648] (first compound max 1 µM, 7x7, partner max 10 µM) | -0.0308 | -0.0586 | -0.0436 | -0.0256 | -0.0226 | -0.008 | -0.0261 | -0.0924 | 0.016 | 0.0192 | -0.0266 | -0.0707 | -0.0311 | -0.051 | -0.0395 | -0.0599 | -0.0402 | -0.0768 | -0.0431 | -0.0073 |
| Cc1c2c(nn1C)CSCc1cc(n(C)n1)CSc1cc(c3ccccc3c1)OCCCc1c(C(=O)O)n(C)c3c-2c(Cl)ccc13 [AZD5991] + Cn1cnc2c(F)c(Nc3ccc(Br)cc3Cl)c(C(=O)NOCCO)cc21 [Selumetinib] (first compound max 1 µM, 7x7, partner max 3 µM) | 0.0253 | 0.0077 | 0.0307 | 0.0108 | -0.0299 | -0.0897 | -0.0165 | -0.0419 | 0.0117 | 0.0693 | 0.0841 | 0.0324 | 0.0353 | 0.0457 | -0.0325 | 0.0193 | -0.0218 | -0.0599 | 0.0438 | 0.0794 |
| C[C@@H]1COCCN1c1cc(C2([S@](C)(=N)=O)CC2)nc(-c2ccnc3[nH]ccc23)n1 [AZD6738] + O=C(c1cc(Cc2n[nH]c(=O)c3ccccc23)ccc1F)N1CCN(C(=O)C2CC2)CC1 [Olaparib] (first compound max 10 µM, 7x7, partner max 10 µM) | 0.016 | -0.0049 | 0.0096 | 0.0128 | 0.0137 | 0.0028 | 0.113 | 0.0239 | -0.0438 | -0.0105 | -0.005 | -0.0038 | 0.0782 | 0.0472 | -0.0408 | 0.0019 | 0.013 | -0.0005 | -0.027 | 0.0084 |
| Cc1cc2ncnn2cc1Nc1ncc2c(n1)n(C1CCOCC1)c(=O)n2C [AZD7648] + C=CCn1c(=O)c2cnc(Nc3ccc(N4CCN(C)CC4)cc3)nc2n1-c1cccc(C(C)(C)O)n1 [AZD1775] (first compound max 10 µM, partner max 1 µM) | 0.0005 | 0.0409 | 0.0039 | 0.0591 | -0.0108 | -0.0051 | 0.0217 | -0.027 | -0.0188 | -0.0476 | 0.0508 | -0.0219 | -0.0355 | -0.0563 | 0.0057 | -0.0065 | -0.0846 | -0.0257 | -0.0288 | -0.0364 |
| Cc1cc2ncnn2cc1Nc1ncc2c(n1)n(C1CCOCC1)c(=O)n2C [AZD7648] + CCN(CCO)CCCOc1ccc2c(Nc3cc(CC(=O)Nc4cccc(F)c4)[nH]n3)ncnc2c1 [AZD2811] (first compound max 10 µM, 7x7, partner max 1 µM) | -0.0091 | 0.045 | -0.0028 | 0.0364 | 0.0156 | 0.0068 | -0.0425 | -0.002 | 0.0123 | 0.0568 | -0.074 | 0.0241 | 0.0046 | 0.0056 | -0.0041 | -0.0101 | -0.0524 | -0.0408 | 0.0161 | -0.0036 |
| Cc1cc2ncnn2cc1Nc1ncc2c(n1)n(C1CCOCC1)c(=O)n2C [AZD7648] + CN(C)CCCOc1ccc(-c2ccc3ncc4c(c3c2)n(C2CCOCC2)c(=O)n4C)cn1 [AZD0156] (first compound max 10 µM, 7x7, partner max 1 µM) | 0.0659 | 0.033 | -0.0363 | -0.0246 | -0.0133 | 0.015 | 0.0228 | -0.0254 | -0.0869 | 0.0157 | 0.0523 | 0.0143 | 0.0157 | 0.0174 | -0.0153 | 0.0062 | -0.0486 | -0.0133 | 0.0332 | -0.0123 |
| Cc1cc2ncnn2cc1Nc1ncc2c(n1)n(C1CCOCC1)c(=O)n2C [AZD7648] + C[C@@H]1COCCN1C2=NC(=NC(=C2)C3(CC3)[S@](=N)(=O)C)C4=C5C=CNC5=NC=C4 [AZD6738] (first compound max 10 µM, 7x7, partner max 10 µM) | 0.0197 | 0.007 | -0.0174 | -0.0459 | 0.0867 | 0.0135 | 0.0727 | 0.0354 | -0.0147 | -0.0087 | 0.0004 | 0.0555 | 0.0009 | 0.003 | -0.0396 | 0.0561 | 0.0003 | 0.0426 | 0.0189 | 0.0113 |
| Cc1cc2ncnn2cc1Nc1ncc2c(n1)n(C1CCOCC1)c(=O)n2C [AZD7648] + O=C(c1cc(Cc2n[nH]c(=O)c3ccccc23)ccc1F)N1CCN(C(=O)C2CC2)CC1 [Olaparib] (first compound max 10 µM, 7x7, partner max 10 µM) | -0.0071 | -0.0107 | -0.0477 | -0.0165 | -0.042 | -0.0225 | -0.0225 | -0.0121 | -0.0146 | 0.013 | 0.0216 | -0.0223 | -0.0257 | -0.0047 | -0.0364 | -0.039 | -0.0466 | -0.0451 | -0.0256 | -0.0239 |
| NC1(C(=O)N[C@@H](CCO)c2ccc(Cl)cc2)CCN(c2ncnc3[nH]ccc23)CC1 [Capivasertib] + CC(=O)c1c(C)c2cnc(Nc3ccc(N4CCNCC4)cn3)nc2n(C2CCCC2)c1=O [Palbociclib] (first compound max 10 µM, 7x7, partner max 10 µM) | -0.0022 | -0.042 | -0.0072 | -0.0779 | -0.0789 | -0.0379 | 0.029 | -0.0234 | 0.0034 | -0.0345 | -0.0263 | 0.0463 | -0.0396 | -0.0168 | -0.0323 | -0.0203 | -0.0319 | -0.0019 | -0.0175 | 0.01 |
| NC1(C(=O)N[C@@H](CCO)c2ccc(Cl)cc2)CCN(c2ncnc3[nH]ccc23)CC1 [Capivasertib] + CC(C)n1c(=O)n(C)c2cnc3cc(F)c(-c4ccc(OCCCN5CCCCC5)nc4)cc3c21 [AZD1390] (first compound max 10 µM, 7x7, partner max 0.3 µM) | -0.0197 | -0.0383 | -0.0418 | -0.0504 | -0.0371 | -0.054 | -0.0546 | -0.0297 | -0.0262 | -0.0818 | -0.0805 | -0.0572 | -0.0438 | -0.0434 | -0.0225 | -0.0275 | -0.0173 | -0.0583 | -0.0417 | -0.0773 |
| NC1(C(=O)N[C@@H](CCO)c2ccc(Cl)cc2)CCN(c2ncnc3[nH]ccc23)CC1 [Capivasertib] + CCN(CCO)CCCOc1ccc2c(Nc3cc(CC(=O)Nc4cccc(F)c4)[nH]n3)ncnc2c1 [AZD2811] (first compound max 10 µM, 7x7, partner max 1 µM) | -0.0124 | 0.0297 | 0.03 | -0.0498 | -0.0113 | 0.0318 | -0.0379 | 0.0001 | 0.0633 | -0.0036 | 0.0781 | -0.0242 | 0.0224 | 0.103 | 0.0317 | -0.0307 | -0.0431 | -0.0676 | -0.104 | -0.0471 |
| NC1(C(=O)N[C@@H](CCO)c2ccc(Cl)cc2)CCN(c2ncnc3[nH]ccc23)CC1 [Capivasertib] + COc1nnc2ccc(N3CCC(c4ccc(OCCN5CCN(C)C(=O)[C@H]5C)cc4)CC3)nn12 [AZD5153] (first compound max 10 µM, 7x7, partner max 1 µM) | -0.0479 | 0.0321 | -0.0239 | -0.0558 | -0.141 | -0.0749 | -0.0109 | 0.0467 | -0.003 | 0.0383 | 0.0774 | -0.0144 | 0.0189 | -0.0603 | -0.0138 | -0.0508 | -0.0209 | 0.0056 | -0.0695 | -0.0195 |
| NC1(C(=O)N[C@@H](CCO)c2ccc(Cl)cc2)CCN(c2ncnc3[nH]ccc23)CC1 [Capivasertib] + C[C@@H]1COCCN1C2=NC(=NC(=C2)C3(CC3)[S@](=N)(=O)C)C4=C5C=CNC5=NC=C4 [AZD6738] (first compound max 10 µM, 7x7, partner max 10 µM) | -0.0345 | -0.065 | 0.0064 | -0.0473 | 0.008 | -0.074 | -0.0371 | -0.0516 | -0.0397 | -0.0251 | 0.0649 | -0.0807 | -0.0169 | -0.0372 | -0.0328 | -0.0345 | -0.0786 | -0.0139 | -0.111 | -0.02 |
| NC1(C(=O)N[C@@H](CCO)c2ccc(Cl)cc2)CCN(c2ncnc3[nH]ccc23)CC1 [Capivasertib] + Cn1cnc2c(F)c(Nc3ccc(Br)cc3Cl)c(C(=O)NOCCO)cc21 [Selumetinib] (first compound max 10 µM, 7x7, partner max 10 µM) | 0.081 | 0.0513 | -0.0148 | 0.0159 | -0.113 | 0.0079 | 0.0084 | 0.0162 | 0.0394 | 0.0605 | 0.0122 | 0.091 | -0.0223 | 0.128 | -0.0314 | 0.0768 | 0.0107 | 0.0248 | -0.0598 | 0.0104 |
| Cc1nc(Nc2ncc(C(=O)Nc3c(C)cccc3Cl)s2)cc(N2CCN(CCO)CC2)n1 [Dasatinib] + CC(=O)Nc1cccc(-n2c(=O)n(C3CC3)c(=O)c3c(Nc4ccc(I)cc4F)n(C)c(=O)c(C)c32)c1 [Trametinib] (first compound max 2 µM, 7x7, partner max 1 µM) | 0.0569 | 0.0559 | 0.0499 | 0.0472 | 0.117 | -0.0046 | 0.0558 | -0.0197 | -0.0052 | 0.105 | -0.0548 | -0.0604 | -0.001 | 0.136 | -0.0056 | -0.0712 | 0.0602 | -0.047 | -0.0174 | -0.0182 |
